For eight compounds, MIC results are on record in publication PMC6563031, “Polyketides from the Mangrove-Derived Endophytic Fungus Cladosporium cladosporioides” (Marine Drugs, 2019).

Converted amounts (≈) assume the structure as drawn. Like-named read-outs stand apart in the source and are kept apart here.

Experiment [1] relates to F. oxysporum f. sp. cucumerinum QDAU-8. Nature of the experiment: Antimicrobial 96-well microtiter plate assay, F. oxysporum f. sp. cucumerinum. The class given is cell-based, Fusarium oxysporum f. sp. cucumerinum. Conditions: amphotericin B as positive control.
The test system of experiment [2] is Bipolaris sorokiniana QDAU-5. Nature of the experiment: Antimicrobial 96-well microtiter plate assay, B. sorokiniana. It counts as cell-based.
The test system of experiment [3] is Glomerella cingulate QDAU-12. In words: Antimicrobial 96-well microtiter plate assay, G. cingulate. The class given is cell-based. Conditions: amphotericin B as positive control.
The subject of experiment [4] is Pseudomonas aeruginosa QDIO-4. Nature of the experiment: Antimicrobial 96-well microtiter plate assay, P. aeruginosa. It counts as cell-based. Conditions: amphotericin B as positive control (as footnoted).
Another experiment has as its system E. tarda QDIO-2. In words: Antimicrobial 96-well microtiter plate assay, E. tarda. It counts as cell-based, Edwardsiella tarda.
Experiment [5] relates to Edwardsiella ictarda QDIO-9. In words: Antimicrobial 96-well microtiter plate assay, E. ictarda. The class given is cell-based. The note with it: chloramphenicol as positive control.
The subject of another experiment is Escherichia coli EMBLC-1. Nature of the experiment: Antimicrobial 96-well microtiter plate assay, E. coli. The class given is cell-based.
Experiment [6] deals with Staphylococcus aureus EMBLC-2. Nature of the experiment: Antimicrobial 96-well microtiter plate assay, S. aureus. It counts as cell-based.
Setting [7] is: Fusarium oxysporum, read-out: MIC.
The mark [8] stands for this setting: Bipolaris sorokiniana, QDAU5, amphotericin B as positive control, read-out: MIC.
Where [9] appears, read: Pseudomonas aeruginosa, QDIO4, P. aeruginosa, read-out: MIC.
The mark [10] stands for this setting: Edwardsiella tarda, QDIO2, chloramphenicol as positive control, read-out: MIC.
[11] abbreviates: Edwardsiella, QDIO9, E. ictarda, read-out: MIC.
Setting [12] is: Escherichia coli, EMBLC1, chloramphenicol as positive control, read-out: MIC.
The mark [13] stands for this setting: Staphylococcus aureus, EMBLC2, chloramphenicol as positive control, read-out: MIC.
[14] abbreviates: chloramphenicol as positive control.

On to `C[C@@H]1[C@H](O)[C@@H](C)/C=C/C=C/C=C/C=C/C=C/C=C/C=C/[C@H](O[C@@H]2O[C@H](C)[C@@H](O)[C@H](N)[C@@H]2O)C[C@@H]2O[C@](O)(C[C@@H](O)C[C@@H](O)[C@H](O)CC[C@@H](O)C[C@@H](O)CC(=O)O[C@H]1C)C[C@H](O)[C@H]2C(=O)O` [Amphotericin B, reference compound], for which the MIC in experiment [1] (setting [7]) was determined as 0.5 µg/mL (≈ 0.541 µM); in experiment [2] (setting [8]), 0.5 µg/mL (≈ 0.541 µM); in experiment [3] (read-out: MIC) it was 0.5 µg/mL (≈ 0.541 µM); in experiment [4] (setting [9]), 2 µg/mL (≈ 2.16 µM).

For the compound `O=C(N[C@H](CO)[C@H](O)c1ccc([N+](=O)[O-])cc1)C(Cl)Cl` [Chloramphenicol, reference compound], the MIC in the experiment on E. tarda QDIO-2 (setting [10]) was 0.5 µg/mL (≈ 1.55 µM); in experiment [5] (setting [11]), 0.5 µg/mL (≈ 1.55 µM); in the experiment with Escherichia coli EMBLC-1 (setting [12]), 2 µg/mL (≈ 6.19 µM); in experiment [6] (setting [13]), 1 µg/mL (≈ 3.09 µM).

Take `CC1CC=CCCC(O)CCCC(=O)O1` (stereo not drawn) [Compound 1, 5R-hydroxyrecifeiolide]: the minimum inhibitory concentration (MIC) in the experiment with E. tarda QDIO-2 (setting [10]) was over 64 µg/mL; in experiment [1] (setting [7]) it was over 64 µg/mL; in experiment [2] (setting [8]), over 64 µg/mL; in experiment [5] (setting [11]), 32 µg/mL (≈ 151 µM); in the experiment on Escherichia coli EMBLC-1 (setting [12]) it was over 64 µg/mL; in experiment [3], “– ((–) = MIC > 64 μg/mL)”. Further, the MIC was 32 µg/mL (≈ 151 µM) in experiment [4] (setting [9]) and over 64 µg/mL in experiment [6] (setting [13]).

Turning to `CC1CC=CCCC(O)CCCC(=O)O1` (stereo not drawn) [Compound 2, 5S-hydroxyrecifeiolide], the MIC entry is “– ((–) = MIC > 64 μg/mL)” against E. tarda QDIO-2 (setting [14]); “– ((–) = MIC > 64 μg/mL)” in experiment [1]; “– ((–) = MIC > 64 μg/mL)” in experiment [2] (amphotericin B as positive control); “– ((–) = MIC > 64 μg/mL)” in experiment [5] (E. ictarda); “– ((–) = MIC > 64 μg/mL)” against Escherichia coli EMBLC-1 (setting [14]); 16 µg/mL (≈ 75.4 µM) in experiment [3]. In addition, the MIC entry in experiment [4] (P. aeruginosa) and in experiment [6] (setting [14]) was “– ((–) = MIC > 64 μg/mL)” throughout.

As for `CC(O)CCCCCCC1OC(=O)CC1O` (stereo not drawn) [Compound 3, ent-cladospolide F], the MIC with E. tarda QDIO-2 (setting [10]) is over 64 µg/mL; in experiment [1] (setting [7]), over 64 µg/mL; in experiment [2] (setting [8]), over 64 µg/mL; in experiment [5] (setting [11]) it was 16 µg/mL (≈ 69.5 µM); in the experiment with Escherichia coli EMBLC-1 (setting [12]), over 64 µg/mL; in experiment [3] (read-out: MIC) it was over 64 µg/mL. Moreover, the minimal inhibitory concentration (MIC) in experiment [4] (setting [9]) was found to be 64 µg/mL (≈ 278 µM); in experiment [6] (setting [13]), 8 µg/mL (≈ 34.7 µM).

For the compound `CC(=O)OC(C)CCCCCCC1OC(=O)CC1O` (centres unmarked) [Compound 4, cladospolide G], the MIC with E. tarda QDIO-2 (setting [10]) is over 64 µg/mL; in experiment [1] (setting [7]), 1 µg/mL (≈ 3.67 µM); in experiment [2] (setting [8]), 32 µg/mL (≈ 117 µM); in experiment [5] (setting [11]), over 64 µg/mL; with Escherichia coli EMBLC-1 (setting [12]) it was 32 µg/mL (≈ 117 µM); in experiment [3] (read-out: MIC), 1 µg/mL (≈ 3.67 µM). Also, the minimal inhibitory concentration (MIC) in experiment [4] (setting [9]) and in experiment [6] (setting [13]) was over 64 µg/mL in each case.

Take `CC(O)CCCCCC(O)C1C=CC(=O)O1` (centres unmarked) [Compound 6, iso-cladospolide B]: the minimum inhibitory concentration (MIC) is 32 µg/mL (≈ 140 µM) in the experiment with E. tarda QDIO-2 (setting [10]); over 64 µg/mL in experiment [1] (setting [7]); over 64 µg/mL in experiment [2] (setting [8]); 16 µg/mL (≈ 70.1 µM) in experiment [5] (setting [11]); 32 µg/mL (≈ 140 µM) in the experiment on Escherichia coli EMBLC-1 (setting [12]); 64 µg/mL (≈ 280 µM) in experiment [3] (read-out: MIC). The MIC in experiment [4] (setting [9]) and in experiment [6] (setting [13]) was over 64 µg/mL throughout.

For the compound `C[C@H]1CCCCC[C@H](O)C(=O)[C@H](O)CC(=O)O1` [Compound 7, pandangolide 1], the MIC in the experiment on E. tarda QDIO-2 (setting [10]) was over 64 µg/mL; in experiment [1] (setting [7]), over 64 µg/mL; in experiment [2] (setting [8]) it was over 64 µg/mL; in experiment [5] (setting [11]) it was 4 µg/mL (≈ 16.4 µM); with Escherichia coli EMBLC-1 (setting [12]), over 64 µg/mL; in experiment [3] (read-out: MIC), 1 µg/mL (≈ 4.09 µM). For the same compound, the minimal inhibitory concentration (MIC) in experiment [4] (setting [9]) and in experiment [6] (setting [13]) was 32 µg/mL (≈ 131 µM) throughout.
